In patent publication US20170052170A1, “NOVEL CELL LINES AND METHODS” (priority 2009, published 2017):
One block for each molecule: values may come before it. Bridge positions count the residues as written; N and C are the ends. Peptide text beside a SMILES is read from it.

Columns and labels:
human CFTR = assay: Fluorescence membrane potential assay, CHO cell lines stably expressing CFTR; format: cell-based; conditions: 15,000 cells/well, 384-well plate; read-out: EC50 (cell fluorescence response)
Description: CHO cell lines stably expressing CFTR were maintained under standard cell culture conditions in Ham's F12 medium supplemented with 10% fetal bovine serum and glutamine. On the day before assay, the cells were harvested from stock plates and plated into black clear-bottom 384 well assay plates. The assay plates were maintained in a 37° C. cell culture incubator under 5% CO2 for 22-24 hours. The media was then removed from the assay plates and blue membrane potential dye (Molecular Devices Inc.) diluted in loading buffer (137 mM NaCl, 5 mM KCl, 1.25 mM CaCl2, 25 mM HEPES, 10 mM glucose) was added and allowed to incubate for 1 hour at 37° C. […] The cellular response as a function of changes in cell fluorescence was monitored over time by a fluorescent plate reader (Hamamatsu FDSS). […] Z' value for the produced stable CFTR-expressing cell line was calculated using a high-throughput compatible fluorescence membrane potential assay. The fluorescence membrane potential assay protocol was performed substantially according to the protocol in Example 12. […] Cell responses in the two conditions were monitored using a fluorescent plate reader (Hamamatsu FDSS). Mean and standard deviations in the two conditions were calculated and Z' was computed using the method disclosed in Zhang et al., J Biomol Screen, 4(2): 67-73, (1999). […]

human GC-C [1] = molecular target: T1, human GC-C (Homo sapiens, UniProt P25092, F281L); conditions: Forte et al. 1999; cited from earlier work
human GC-C [2] = molecular target: T1, human GC-C; assay: cGMP competitive ELISA / Direct Cyclic GMP Enzyme Immunoassay, GC-C-expressing 293T cell line; format: cell-based; design: expressed in transfected cells; host or cells: 293T
Description: Populations of cells were tested using functional criteria. The Direct Cyclic GMP Enzyme Immunoassay Kit (Cat. 900-014; AssayDesigns, Inc.) was used according to manufacturer's instructions: (http://www.assaydesigns.com/objects/catalog//product/extras/900-014.pdf). Cells were tested at 4 different densities in 96- or 384-well plates and responses were analyzed. The following conditions were used for the GC-C-expressing cell lines of the invention: • Clone screening: 1:2 and 1:3 splits of confluent 96-well plates 48 hour prior to assay, 30 minutes guanylin treatment. • Dose-response studies: densities of 20,000, 40,000, 60,000, 80,000, 120,000 and 160,000 per well, 30 minutes guanylin treatment (see Example 8). • Z′ studies: densities of 160,000 and 200,000 per well were used, 30 minutes guanylin treatment (see Example 9).
A competitive ELISA for detection of cGMP was used to characterize native GC-C function in the produced GC-C-expressing cell line. Cells expressing GC-C were maintained under standard cell culture conditions in Dulbecco's Modified Eagles medium (DMEM) supplemented with 10% fetal bovine serum, glutamine and HEPES and grown in T175 cm flasks. For the ELISA, the cells were plated into coated 96-well plates (poly-D-lysine).
Cells were washed twice with serum-free medium and incubated with 1 mM IBMX for 30 minutes. Desired activators (i.e., guanylin, 0.001-40 μM) were then added to the cells and incubated for 30-40 minutes. Supernatant was removed, and the cells were washed with TBS buffer. […]. This was followed by lysis with 0.1N HCl and a freeze/thaw cycle at −20° C./room temperature. […]
All of the following steps were performed at room temperature, unless otherwise indicated. […] The absorbance was then read at 405 nm on a SAFIRE^2™ plate reader (Tecan). […]
Z′ for the produced GC-C-expressing cell line was calculated using a direct competitive ELISA assay. […] Absorbance (corresponding to cGMP levels) in the two conditions was monitored using a SAFIRE^2™ plate reader (Tecan). […]

[3] = system: human bitter receptor-Gα15 cell lines; assay: isoproterenol dose response (intracellular free calcium) in human bitter receptor-Gα15 cell lines; format: cell-based; conditions: change in intracellular free calcium, read-out: EC50 in a dose response curve conducted with the cell or cell line
Source text: In some embodiments, the bitter receptor is a functional bitter receptor. In some embodiments, the cell or cell line has a change in the concentration of intracellular free calcium when contacted with isoproterenol. […] In some embodiments, the cell or cell line has a signal to noise ratio of greater than 1.
According to yet another aspect of the present invention, a method of identifying a modulator of a bitter receptor function comprises: a) exposing a cell or cell line that stably expresses a bitter receptor to a test compound; and b) detecting a change in a function of the bitter receptor. In some embodiments, the detecting utilizes an assay that measures intracellular free calcium. In some embodiments, the intracellular free calcium is measured using one or more calcium-sensitive fluorescent dyes, a fluorescence microscope, and optionally a fluorescent plate reader, wherein at least one fluorescent dye binds free calcium. In some other embodiments, the intracellular free calcium is monitored by real-time imaging using one or more calcium-sensitive fluorescent dyes, wherein at least one fluorescent dye binds free calcium.
FIG. 16 is a graph showing dose response curves of relative responses to isoproterenol in 25 human bitter receptor-Gα15 cell lines.

T1 sequence (P25092 24-1073 F281L): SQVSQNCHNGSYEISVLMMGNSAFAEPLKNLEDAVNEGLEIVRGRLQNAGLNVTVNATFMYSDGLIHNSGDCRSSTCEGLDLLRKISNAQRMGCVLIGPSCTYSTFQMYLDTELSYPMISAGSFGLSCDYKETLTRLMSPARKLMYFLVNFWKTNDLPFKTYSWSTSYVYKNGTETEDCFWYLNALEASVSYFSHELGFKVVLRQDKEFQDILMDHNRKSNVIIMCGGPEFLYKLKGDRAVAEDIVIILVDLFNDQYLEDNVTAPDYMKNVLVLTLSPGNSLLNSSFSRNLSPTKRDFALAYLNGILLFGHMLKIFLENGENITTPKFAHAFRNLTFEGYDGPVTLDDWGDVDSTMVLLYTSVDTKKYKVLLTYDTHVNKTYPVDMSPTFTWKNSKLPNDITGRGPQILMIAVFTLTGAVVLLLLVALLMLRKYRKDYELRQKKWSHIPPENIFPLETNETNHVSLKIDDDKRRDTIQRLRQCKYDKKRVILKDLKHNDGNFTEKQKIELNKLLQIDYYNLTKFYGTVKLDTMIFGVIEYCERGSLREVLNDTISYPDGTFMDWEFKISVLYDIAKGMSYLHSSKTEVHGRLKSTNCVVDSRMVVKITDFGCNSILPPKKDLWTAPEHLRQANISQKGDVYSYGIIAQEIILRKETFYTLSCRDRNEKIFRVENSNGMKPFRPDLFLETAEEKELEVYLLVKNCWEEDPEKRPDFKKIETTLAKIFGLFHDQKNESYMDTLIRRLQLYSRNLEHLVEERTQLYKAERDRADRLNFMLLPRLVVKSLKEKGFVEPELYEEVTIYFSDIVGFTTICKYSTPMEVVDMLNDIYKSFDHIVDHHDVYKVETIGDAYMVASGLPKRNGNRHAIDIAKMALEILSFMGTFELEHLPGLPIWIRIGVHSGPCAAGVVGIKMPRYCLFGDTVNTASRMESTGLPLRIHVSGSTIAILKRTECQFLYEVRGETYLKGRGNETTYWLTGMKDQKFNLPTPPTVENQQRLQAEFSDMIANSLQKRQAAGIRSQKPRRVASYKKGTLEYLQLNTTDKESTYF

EC50 (human CFTR): 256 nM
Compound: C=C[C@@]1(C)CC(=O)[C@]2(O)[C@@]3(C)[C@@H](O)CCC(C)(C)[C@@H]3[C@H](O)[C@H](OC(C)=O)[C@@]2(C)O1 [forskolin]

absorbance in cGMP ELISA (reduction corresponds to increased cGMP levels) (human GC-C [2]; 100 nM guanylin): Reduction in absorbance
EC50 (human GC-C [2]; 30 minutes treatment, 96-well plate, read-out: EC50 value (cGMP response)): 1.1 nM
level of cGMP (human GC-C [2]; produced GC-C-expressing cell line, low concentrations of guanylin): 6 pmol/mL
Compound: CC[C@H](C)[C@@H]1NC(=O)[C@H](CCC(=O)O)NC(=O)[C@@H](NC(=O)[C@@H](NC(=O)CNC(=O)[C@@H]2CCCN2)[C@@H](C)O)CSSC[C@@H]2NC(=O)[C@H](C)NC(=O)[C@H](C)NC(=O)[C@H](Cc3ccc(O)cc3)NC(=O)[C@H](C)NC(=O)[C@H](CSSC[C@@H](C(=O)O)NC(=O)CNC(=O)[C@H]([C@@H](C)O)NC2=O)NC1=O [guanylin] (H-PGTCEICAYAACTGC-OH; disulfide 4-12, 7-15 (inferred); N-terminus and C-terminus assumed)
level of cGMP previously reported in other cell lines (human GC-C [1]): 3.5 pmol/mL

EC50 [3]: 1 to 20 nM
Compound: CC(C)NCC(O)c1ccc(O)c(O)c1 (stereo not drawn) [isoproterenol]
